Experimental data: ChEMBL document CHEMBL5550199, “Rational In Silico Design of Selective TMPRSS6 Peptidomimetic Inhibitors via Exploitation of the S2 Subpocket” (J Med Chem, 2024)
Values after ≈ are worked out from the molar mass of the structure shown. Active and inactive are the calls of the source. The calls are words filed in the database; no cut-off is given here.

How the values were obtained:
[1] = target: T1, Transmembrane protease serine 6 (Homo sapiens, UniProt Q8IU80); experiment: Binding affinity to recombinant human TMPRSS6 using Boc-QAR-AMC as substrate assessed as inhibition constant by fluorescence based analysis
T1 sequence (Q8IU80 whole entry): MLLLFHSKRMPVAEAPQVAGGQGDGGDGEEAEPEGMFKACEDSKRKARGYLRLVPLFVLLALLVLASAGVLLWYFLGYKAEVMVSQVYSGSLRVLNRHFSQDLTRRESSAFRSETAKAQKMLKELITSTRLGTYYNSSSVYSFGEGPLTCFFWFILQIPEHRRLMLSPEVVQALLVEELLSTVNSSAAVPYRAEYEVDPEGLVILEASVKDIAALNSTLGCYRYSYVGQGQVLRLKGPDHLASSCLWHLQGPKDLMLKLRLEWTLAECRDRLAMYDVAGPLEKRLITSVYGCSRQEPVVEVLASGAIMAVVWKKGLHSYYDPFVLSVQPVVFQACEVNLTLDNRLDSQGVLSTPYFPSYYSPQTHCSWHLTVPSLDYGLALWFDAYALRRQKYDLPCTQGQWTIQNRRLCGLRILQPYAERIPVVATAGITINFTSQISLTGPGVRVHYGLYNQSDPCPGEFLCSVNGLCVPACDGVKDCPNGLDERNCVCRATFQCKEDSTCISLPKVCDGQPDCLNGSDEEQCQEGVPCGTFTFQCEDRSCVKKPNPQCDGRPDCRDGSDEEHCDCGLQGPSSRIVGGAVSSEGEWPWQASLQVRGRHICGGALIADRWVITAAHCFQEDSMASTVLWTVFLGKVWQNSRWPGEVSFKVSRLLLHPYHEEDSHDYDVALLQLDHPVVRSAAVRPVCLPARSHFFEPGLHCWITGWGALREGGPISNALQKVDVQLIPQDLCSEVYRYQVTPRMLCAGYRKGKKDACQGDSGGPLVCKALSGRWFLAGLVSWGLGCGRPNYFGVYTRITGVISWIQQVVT

[2] = target: T2, Suppressor of tumorigenicity 14 protein (Homo sapiens, UniProt Q9Y5Y6); experiment: Binding affinity to recombinant human Matriptase using Boc-QAR-AMC as substrate assessed as inhibition constant by fluorescence based analysis
T2 sequence (Q9Y5Y6 whole entry): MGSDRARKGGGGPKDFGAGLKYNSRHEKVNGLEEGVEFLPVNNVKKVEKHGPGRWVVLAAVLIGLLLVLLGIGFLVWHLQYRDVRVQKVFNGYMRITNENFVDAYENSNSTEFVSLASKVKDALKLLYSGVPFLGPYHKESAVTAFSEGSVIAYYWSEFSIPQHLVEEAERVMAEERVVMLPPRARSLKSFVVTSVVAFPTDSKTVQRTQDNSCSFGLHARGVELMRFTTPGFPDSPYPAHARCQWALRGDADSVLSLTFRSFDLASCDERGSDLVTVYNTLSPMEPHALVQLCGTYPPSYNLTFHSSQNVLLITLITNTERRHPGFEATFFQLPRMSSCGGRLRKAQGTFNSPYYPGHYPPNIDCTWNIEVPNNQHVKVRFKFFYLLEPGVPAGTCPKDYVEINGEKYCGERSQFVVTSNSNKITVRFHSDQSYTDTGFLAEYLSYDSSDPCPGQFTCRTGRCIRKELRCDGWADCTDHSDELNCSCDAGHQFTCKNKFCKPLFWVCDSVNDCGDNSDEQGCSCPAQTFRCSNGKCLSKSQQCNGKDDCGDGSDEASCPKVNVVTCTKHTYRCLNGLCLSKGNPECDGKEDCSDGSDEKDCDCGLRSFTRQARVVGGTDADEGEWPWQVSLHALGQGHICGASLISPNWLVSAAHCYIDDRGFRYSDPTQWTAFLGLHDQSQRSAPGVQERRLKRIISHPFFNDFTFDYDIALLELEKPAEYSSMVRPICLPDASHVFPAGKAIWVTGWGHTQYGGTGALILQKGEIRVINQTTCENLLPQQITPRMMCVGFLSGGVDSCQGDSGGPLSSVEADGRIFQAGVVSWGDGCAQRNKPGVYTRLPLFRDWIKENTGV

[3] = organism: Homo sapiens; experiment: Selectivity index, ratio of Ki for binding affinity to recombinant human Matriptase using Boc-QAR-AMC as substrate assessed as inhibition constant by fluorescence based analysis to Ki for binding affinity to recombinant human TMPRSS6 using Boc-QAR-AMC as substrate assessed as inhibition constant by fluorescence based analysis
[4] = target: T2, Suppressor of tumorigenicity 14 protein; experiment: Mixed inhibition of recombinant human Matriptase using Boc-QAR-AMC as substrate assessed as inhibition constant by fluorescence based analysis
[5] = target: T1, Transmembrane protease serine 6; experiment: Competitive tight binding inhibition of recombinant human TMPRSS6 using Boc-QAR-AMC as substrate assessed as inhibition constant by fluorescence based analysis
[6] = organism: Homo sapiens; experiment: (§1) Selectivity index, ratio of Ki for mixed inhibition of recombinant human Matriptase using Boc-QAR-AMC as substrate assessed as inhibition constant by fluorescence based analysis to Ki for competitive tight binding inhibition of recombinant human TMPRSS6 using Boc-QAR-AMC as substrate assessed as inhibition constant by fluorescence based analysis
[7] = target: T3, Prothrombin (Homo sapiens, UniProt P00734); experiment: Inhibition of recombinant human thrombin using Boc-QAR-AMC as substrate assessed as inhibition constant by fluorescence based analysis
[8] = target: T4, Coagulation factor X (Homo sapiens, UniProt P00742); experiment: Inhibition of recombinant human FXA using Boc-QAR-AMC as substrate assessed as inhibition constant by fluorescence based analysis
T4 sequence (P00742 41-179 limits assumed): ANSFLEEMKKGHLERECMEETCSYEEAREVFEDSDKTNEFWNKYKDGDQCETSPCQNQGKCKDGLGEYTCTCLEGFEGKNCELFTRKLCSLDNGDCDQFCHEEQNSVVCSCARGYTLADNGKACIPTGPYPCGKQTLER
T4 sequence (P00742 235-488 limits assumed): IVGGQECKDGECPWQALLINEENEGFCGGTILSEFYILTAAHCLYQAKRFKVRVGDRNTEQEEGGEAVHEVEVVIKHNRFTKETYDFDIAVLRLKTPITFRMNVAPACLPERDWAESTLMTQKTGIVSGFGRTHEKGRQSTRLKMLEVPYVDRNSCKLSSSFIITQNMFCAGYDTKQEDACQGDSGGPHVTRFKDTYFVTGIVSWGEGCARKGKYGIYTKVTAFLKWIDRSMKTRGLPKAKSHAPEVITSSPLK

[9] = target: T5, Furin (Homo sapiens, UniProt P09958); experiment: Inhibition of recombinant human furin using Boc-RVRR-AMC as substrate assessed as inhibition constant by fluorescence based analysis
T5 sequence (P09958 whole entry): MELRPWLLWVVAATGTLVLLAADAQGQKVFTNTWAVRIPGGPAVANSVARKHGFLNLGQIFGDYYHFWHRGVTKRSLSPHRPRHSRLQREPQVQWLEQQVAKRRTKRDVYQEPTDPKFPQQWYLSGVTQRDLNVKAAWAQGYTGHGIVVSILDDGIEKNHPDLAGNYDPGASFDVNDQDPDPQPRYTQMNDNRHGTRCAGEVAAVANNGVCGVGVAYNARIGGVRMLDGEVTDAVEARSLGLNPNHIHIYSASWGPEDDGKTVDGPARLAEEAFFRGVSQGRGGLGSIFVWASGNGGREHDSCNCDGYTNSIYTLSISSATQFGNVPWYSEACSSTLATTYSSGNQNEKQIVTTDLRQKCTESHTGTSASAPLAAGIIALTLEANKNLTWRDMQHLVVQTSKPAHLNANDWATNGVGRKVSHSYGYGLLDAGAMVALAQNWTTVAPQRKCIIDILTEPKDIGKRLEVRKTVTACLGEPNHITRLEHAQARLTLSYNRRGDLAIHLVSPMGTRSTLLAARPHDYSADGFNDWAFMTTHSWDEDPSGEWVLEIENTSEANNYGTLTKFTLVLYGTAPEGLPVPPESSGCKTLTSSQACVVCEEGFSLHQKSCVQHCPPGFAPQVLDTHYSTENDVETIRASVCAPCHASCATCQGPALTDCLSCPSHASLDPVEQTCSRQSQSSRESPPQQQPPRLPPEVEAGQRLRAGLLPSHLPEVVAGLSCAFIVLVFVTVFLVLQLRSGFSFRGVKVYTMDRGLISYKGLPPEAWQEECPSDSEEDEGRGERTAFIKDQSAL

[10] = Cytotoxicity against HEK cells assessed as reduction in cell viability measured for 24 hrs by celltiter-glo 2.0 assay; format: toxicity, cell-based; settings: human
[11] = target: T1, Transmembrane protease serine 6; experiment: Inhibition of human TMPRSS6 transfected in HEK293SL cells using Boc-QAR-AMC as substrate measured for 24 hrs; format: cell-based
[12] = target: T2, Suppressor of tumorigenicity 14 protein; experiment: Inhibition of human Matriptase transfected in HEK293SL cells using Boc-QAR-AMC as substrate measured for 24 hrs; format: cell-based
[13] = organism: Homo sapiens; experiment: Selectivity index, ratio of IC50 for inhibition of human Matriptase transfected in HEK293SL cells using Boc-QAR-AMC as substrate to IC50 for inhibition of human TMPRSS6 transfected in HEK293SL cells using Boc-QAR-AMC as substrate; format: cell-based
[14] = Solubility of compound in PBS at pH 7.4 measured for 90 mins by UPLC analysis; format: physicochemical; settings: buffer, pH 7.4, 1.5 h
[15] = Stability in Sprague-Dawley rat plasma assessed as parent compound remaining at 24 hrs by UPLC-MS analysis; format: ADME, cell-free
[16] = Metabolic stability in Sprague-Dawley rat microsome assessed as half life measured for 120 mins in presence of NADPH by UPLC-MS analysis; format: ADME; settings: microsomes, 2 h
[17] = Metabolic stability in Sprague-Dawley rat microsome assessed as intrinsic clearance measured for 120 mins in presence of NADPH by UPLC-MS analysis; format: ADME; settings: microsomes, 2 h
[18] = Apparent Permeability of compound in PBS buffer at pH 7.4 incubated for 17 hrs by PAMPA assay; format: ADME; settings: pH 7.4, 17 h
[19] = tested on: Caco-2; experiment: Disruption of epithelial integrity in human Caco-2 cells assessed as change in TEER modulation after 8 days; format: functional, cell-based; settings: Caco-2, 192 h
[20] = target: T6, Transmembrane protease serine 6 (Homo sapiens) (UniProt Q8IU80); experiment: Inhibition of recombinant human TMPRSS6 at 100 nM by Michaelis-Menten analysis relative to control
T6 sequence (whole entry): T1 sequence (Q8IU80 whole entry)

[21] = target: T7, Suppressor of tumorigenicity 14 protein (Homo sapiens) (UniProt Q9Y5Y6); experiment: Inhibition of recombinant human Matriptase at 100 nM by Michaelis-Menten analysis relative to control
T7 sequence (whole entry): T2 sequence (Q9Y5Y6 whole entry)

[22] = target: T2, Suppressor of tumorigenicity 14 protein; experiment: Competitive tight binding inhibition of recombinant human Matriptase using Boc-QAR-AMC as substrate assessed as inhibition constant by fluorescence based analysis
[23] = organism: Homo sapiens; experiment: as §1, with “competitive tight binding” for “mixed”
[24] = target: T3, Prothrombin; experiment: Inhibition of thrombin (unknown origin)
[25] = target: T4, Coagulation factor X; experiment: Inhibition of FXA (unknown origin)
[26] = target: T5, Furin; experiment: Inhibition of furin (unknown origin)
[27] = tested on: Caco-2; experiment: Disruption of epithelial integrity in human Caco-2 cells assessed as change in TEER modulation at 10 uM after 8 days; format: functional, cell-based; settings: time 8.0 day

Structure (SMILES)	Ki [1]	Ki [2]	Ratio Ki [3]	Ki [4]	Ki [5]	Ratio Ki [6]	Ki [7]	Ki [8]	Ki [9]	Activity [10]	IC50 [11]	IC50 [12]	Ratio IC50 [13]	solubility [14]	Stability [15]	t1/2 [16]	CLH [17]	Papp [18]	IC50 [19]	other results
N=C(N)NCCC[C@H](NC(=O)[C@@H](NC(=O)[C@H](Cc1cscn1)NC(=O)CCc1ccccc1)C1CCCCC1)C(=O)c1nc2ccccc2s1	3.4 nM	99.2 nM	29	100 nM	5.3 nM	19	120 nM	> 10000 nM	> 10000 nM	Non-Toxic	22 nM	352 nM	16	158 µM (≈ 113 µg/mL)	65%	> 2 h	1.12 µL/min/mg	0.017 10^-6 cm/s	–	–
N=C(N)NCCC[C@H](NC(=O)[C@@H](NC(=O)[C@H](CCc1ccccc1)NC(=O)CCc1ccccc1)C1CCCCC1)C(=O)c1nc2ccccc2s1	–	–	–	618 nM	5.2 nM	119	395 nM	> 10000 nM	> 10000 nM	–	332 nM	6070 nM	18	–	100%	> 2 h	1.4 µL/min/mg	0.01 10^-6 cm/s	6100 nM	–
CC(C)[C@H](NC(=O)[C@H](Cc1cscn1)NC(=O)CCc1ccccc1)C(=O)N[C@@H](CCCNC(=N)N)C(=O)c1nc2ccccc2s1	1.2 nM	8.6 nM	7.2	–	0.6 nM	–	53 nM	2320 nM	> 10000 nM	Non-Toxic	4.4 nM	18.1 nM	4	250 µM (≈ 169 µg/mL)	6%	> 2 h	1.12 µL/min/mg	0.004 10^-6 cm/s	18.1 nM	inhibition [20]: 1%; inhibition [21]: 5%; Ki [22]: 4.8 nM; Ratio Ki [23]: 8; Ki [24]: 1100 nM; Ki [25]: 323 nM; Ki [26]: > 30000 nM; Activity [27]: Active
